What was measured:
human P-gp = biological target: T1, human P-gp (Homo sapiens, UniProt P08183); assay: Transcellular P-gp assay (human P-gp); assay type: in vitro ADME; conditions: LLC-PK1, second value of cell, transfected LLC-PK cells; for efflux ratio: read-out: Apical Efflux Ratio; for Papp: read-out: Permeability
T1 construct: expressed in transfected cells; host or cells: LLC-PKT (so in the source) porcine kidney epithelial cells
Source text: (§1) The general assay uses transfected LLC-PKT cells (porcine kidney epithelial cells) over-expressing human or mouse P-gp, cultured on 96 well semi-permeable filter membrane plates, where they form a polarized monolayer with tight junctions, and act as a barrier between the apical and basolateral compartment.
(§2) P-gp is expressed in the apical-facing membrane of the monolayer.
(§3) The tightness of the cell monolayer and functional activity of P-gp are confirmed by addition of a cell-impermeable marker, Lucifer yellow, and a reference P-gp substrate, edoxaban, respectively.

mouse P-gp = assay: Transcellular P-gp assay (mouse P-gp); assay type: in vitro ADME; conditions: LLC-PK1, first value of cell, transfected LLC-PK cells; for efflux ratio: read-out: Apical Efflux Ratio; for Papp: read-out: Permeability
Source text: as §1, §2, §3

[1] = biological target: T2, hERG cardiac potassium channel (Homo sapiens, UniProt Q12809); assay: hERG screening assay (automated patch clamp); assay type: cell-based; conditions: CHO crelox hERG cells, whole-cell patch clamp, 35-37° C.
T2 construct: Evotec (cryopreserved cells) ATCC PTA-6812; host or cells: CHO crelox hERG cell line (Chinese hamster)
Source text: In the drug development process of small molecules, one of the most frequent adverse side effects, leading to the failure of drugs, is the cardiac arrhythmias. Such failure is often related to the capacity of the drug to inhibit the human ether-a-go-go-related gene (hERG) cardiac potassium channel. Having no or low inhibition of the hERG cardiac potassium channel is therefore considered as beneficial.
The CHO crelox hERG cell line (ATCC reference Nr. PTA-6812, female Chinese hamster cells) was generated and validated at Roche. Ready-to-use frozen instant CHO-hERG cells were cryopreserved at Evotec (Germany) and used directly in the experiments.
The extracellular solution contains (in mM): NaCl 150; KCl 4; CaCl2 1; MgCl2 1; HEPES 10; pH 7.2-7.4 with NaOH, osmolarity 290-330 mOsm. […]
The effects of a compound on hERG K+-currents parameters will be evaluated at 2 concentrations in at least 4 cells.
The hERG test is performed using automated patch clamp system SynchroPatch® 384 (Nanion Technologies GmbH, Germany). K+ currents are measured with the patch-voltage-clamp technique in the whole-cell configuration at 35-37° C. […]
The amplitudes of IKhERG were recorded in each concentration of drug and they were compared to the vehicle control values (taken as 100%) to define fractional blocks. […]

T1 sequence (P08183 whole entry): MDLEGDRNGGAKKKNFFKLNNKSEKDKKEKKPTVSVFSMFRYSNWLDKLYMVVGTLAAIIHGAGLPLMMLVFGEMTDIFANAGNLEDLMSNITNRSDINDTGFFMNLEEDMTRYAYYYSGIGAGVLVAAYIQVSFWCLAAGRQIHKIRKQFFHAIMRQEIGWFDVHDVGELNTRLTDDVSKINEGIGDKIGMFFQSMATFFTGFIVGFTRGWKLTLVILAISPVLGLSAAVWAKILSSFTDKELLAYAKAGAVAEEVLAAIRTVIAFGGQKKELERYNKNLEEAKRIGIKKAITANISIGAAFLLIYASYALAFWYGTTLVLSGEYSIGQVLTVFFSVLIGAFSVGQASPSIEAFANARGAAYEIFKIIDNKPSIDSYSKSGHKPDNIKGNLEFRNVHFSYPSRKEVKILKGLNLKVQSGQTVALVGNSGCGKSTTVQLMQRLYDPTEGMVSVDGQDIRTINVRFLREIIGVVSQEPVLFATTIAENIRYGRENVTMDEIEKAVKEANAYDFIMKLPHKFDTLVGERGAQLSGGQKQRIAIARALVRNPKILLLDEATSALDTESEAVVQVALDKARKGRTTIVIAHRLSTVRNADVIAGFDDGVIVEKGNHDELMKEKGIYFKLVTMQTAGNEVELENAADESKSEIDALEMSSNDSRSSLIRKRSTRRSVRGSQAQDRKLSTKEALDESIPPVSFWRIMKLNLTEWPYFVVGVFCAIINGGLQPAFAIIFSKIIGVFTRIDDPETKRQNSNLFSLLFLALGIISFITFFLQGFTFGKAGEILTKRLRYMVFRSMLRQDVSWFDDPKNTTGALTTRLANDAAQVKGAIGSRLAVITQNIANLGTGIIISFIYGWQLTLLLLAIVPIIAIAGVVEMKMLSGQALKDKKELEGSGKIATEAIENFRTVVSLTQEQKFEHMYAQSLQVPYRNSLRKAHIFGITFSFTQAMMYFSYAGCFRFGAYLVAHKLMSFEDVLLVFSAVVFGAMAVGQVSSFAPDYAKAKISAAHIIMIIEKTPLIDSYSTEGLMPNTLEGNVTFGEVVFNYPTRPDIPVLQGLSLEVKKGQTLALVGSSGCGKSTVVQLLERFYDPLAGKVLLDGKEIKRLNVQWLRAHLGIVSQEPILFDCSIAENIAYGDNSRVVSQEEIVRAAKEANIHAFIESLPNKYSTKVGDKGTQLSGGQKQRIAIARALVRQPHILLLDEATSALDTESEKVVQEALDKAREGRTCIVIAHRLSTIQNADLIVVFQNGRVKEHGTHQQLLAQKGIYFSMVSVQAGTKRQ
T2 sequence (Q12809 whole entry): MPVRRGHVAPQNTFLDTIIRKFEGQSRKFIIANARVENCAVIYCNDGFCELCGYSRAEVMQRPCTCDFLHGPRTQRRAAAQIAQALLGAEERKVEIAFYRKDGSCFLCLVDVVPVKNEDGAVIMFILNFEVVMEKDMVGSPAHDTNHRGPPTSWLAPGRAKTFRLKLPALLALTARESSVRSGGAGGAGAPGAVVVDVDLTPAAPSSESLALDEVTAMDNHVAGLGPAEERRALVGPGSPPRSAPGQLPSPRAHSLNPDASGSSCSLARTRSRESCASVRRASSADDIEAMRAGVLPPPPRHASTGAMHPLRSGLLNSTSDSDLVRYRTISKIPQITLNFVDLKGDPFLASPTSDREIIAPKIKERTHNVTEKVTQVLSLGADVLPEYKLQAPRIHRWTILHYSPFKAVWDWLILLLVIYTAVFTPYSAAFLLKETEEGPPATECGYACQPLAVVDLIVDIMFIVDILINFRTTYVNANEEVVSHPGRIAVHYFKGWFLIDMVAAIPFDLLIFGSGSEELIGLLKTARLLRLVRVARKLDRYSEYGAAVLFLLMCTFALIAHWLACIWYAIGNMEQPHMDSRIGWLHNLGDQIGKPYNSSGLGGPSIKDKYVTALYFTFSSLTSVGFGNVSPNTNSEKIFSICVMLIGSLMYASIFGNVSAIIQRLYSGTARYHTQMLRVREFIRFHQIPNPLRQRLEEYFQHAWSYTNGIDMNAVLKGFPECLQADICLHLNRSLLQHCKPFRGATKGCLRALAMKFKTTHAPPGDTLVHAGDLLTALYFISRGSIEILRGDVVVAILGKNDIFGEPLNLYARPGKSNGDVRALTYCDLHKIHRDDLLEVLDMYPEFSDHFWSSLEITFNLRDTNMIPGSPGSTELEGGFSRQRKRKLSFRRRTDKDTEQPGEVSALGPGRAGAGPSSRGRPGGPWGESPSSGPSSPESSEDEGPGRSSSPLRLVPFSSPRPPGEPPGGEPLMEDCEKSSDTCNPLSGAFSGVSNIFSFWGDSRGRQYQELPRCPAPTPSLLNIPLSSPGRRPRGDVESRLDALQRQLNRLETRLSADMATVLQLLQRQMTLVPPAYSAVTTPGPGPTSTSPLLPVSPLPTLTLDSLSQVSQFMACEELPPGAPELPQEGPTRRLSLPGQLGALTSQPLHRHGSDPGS

Compound | efflux ratio (human P-gp) | Papp (human P-gp) [×10⁻⁶ cm/s] | efflux ratio (mouse P-gp) | Papp (mouse P-gp) [×10⁻⁶ cm/s] | IC20 [1] [µM]
Cn1c(-c2ccc3c(c2O)CCO3)nnc(N[C@@H]2CCCN(CCO)C2)c1=O [Example 1, 3-(4-Hydroxy-2,3-dihydrobenzofuran-5-yl)-6-[[(3R)-1-(2-hydroxyethyl)-3-piperidyl]amino]-4-methyl-1,2,4-triazin-5-one] | 4.8 | 4.7 | 8.6 | 4.7 | > 10
Cn1c(-c2ccc3c(c2O)CCC3)nnc(N[C@@H]2CCCN(CCO)C2)c1=O [Example 2, 6-[[(3R)-1-(2-Hydroxyethyl)-3-piperidyl]amino]-3-(4-hydroxyindan-5-yl)-4-methyl-1,2,4-triazin-5-one] | 4.8 | 19 | 10 | 17 | > 10
CCN1CCC[C@@H](Nc2nnc(-c3ccc4c(c3O)CCO4)n(C)c2=O)C1 [RE-A, 6-[[(3R)-1-Ethyl-3-piperidyl]amino]-3-(4-hydroxy-2,3-dihydrobenzofuran-5-yl)-4-methyl-1,2,4-triazin-5-one, reference compound] | 1.2 | 25 | 2 | 23.2 | –

From patent US20260109689A1, “NOVEL COMPOUNDS” (Hoffmann-La Roche Inc., priority 2023, published 2026)
